The source of these data is ChEMBL document CHEMBL1145787, “Synthesis and structure-activity relationship of N-substituted 4-arylsulfonylpiperidine-4-hydroxamic acids as novel, orally active matrix metalloproteinase inhibitors for the treatment of osteoarthritis” (J Med Chem, 2003).

The IC50 is the concentration that inhibits the measured activity by half. Read a high IC50 as a need for much substance. What is called inhibition in vivo is the change of the read-out against control, counted positive when it falls. A higher inhibition in vivo goes with a strong effect.

For one assay, the system named is Rattus norvegicus. Put plainly: In vivo inhibition of Matrix metalloprotease enzyme by Sponge-wrapped cartilage assay at 25 mg/kg. po. qd. The assay is classed as functional.
Assay [1] deals with Disintegrin and metalloproteinase domain-containing protein 17 (Homo sapiens, UniProt P78536). As to the kind of experiment: In vitro inhibitory activity against tumor necrosis factor alpha converting enzyme (TACE).
In assay [2] the target is Matrix metalloproteinase-9 (Homo sapiens, UniProt P14780). Put plainly: In vitro inhibitory activity against matrix metalloprotease-9.
For the next assay, the target named is T1, Interstitial collagenase (Homo sapiens, UniProt P03956).
T1 sequence (P03956 whole entry): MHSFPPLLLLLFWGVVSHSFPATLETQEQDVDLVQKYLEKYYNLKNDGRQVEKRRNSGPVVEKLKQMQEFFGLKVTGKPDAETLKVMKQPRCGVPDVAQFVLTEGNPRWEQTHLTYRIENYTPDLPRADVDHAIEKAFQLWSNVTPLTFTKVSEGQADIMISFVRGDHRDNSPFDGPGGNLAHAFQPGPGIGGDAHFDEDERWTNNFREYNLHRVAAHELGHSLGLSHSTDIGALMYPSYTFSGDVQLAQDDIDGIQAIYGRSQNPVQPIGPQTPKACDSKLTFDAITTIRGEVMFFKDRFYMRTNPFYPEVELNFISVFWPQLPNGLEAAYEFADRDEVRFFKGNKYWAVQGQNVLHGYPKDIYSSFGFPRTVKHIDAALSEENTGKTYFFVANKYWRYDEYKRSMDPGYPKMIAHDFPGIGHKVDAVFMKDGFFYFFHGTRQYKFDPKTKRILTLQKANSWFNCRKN
Put plainly: In vitro inhibitory activity against matrix metalloprotease-1.

Assay [3] is described as follows: In vivo inhibitory activity against Matrix metalloprotease enzyme by dialysis implant assay, value are relative to activity of CGS-27023 (41+/-4) at 25 mg/kg. po. The class given is functional.
The next assay addresses Collagenase 3 (Homo sapiens, UniProt P45452).
Assay [4] is described as follows: In vivo inhibitory activity against Matrix metalloprotease enzyme by dialysis implant assay, value are relative to activity of CGS-27023 (71+/-2) at 25 mg/kg. po. The class given is functional.
Assay [5] in a line: In vivo inhibitory activity against Matrix metalloprotease enzyme by dialysis implant assay, value is relative to activity of CGS-27023 (53+/-3) at 25 mg/kg. po. The assay is classed as functional.

Matrix metalloproteinase-9, sequence (P14780 whole entry): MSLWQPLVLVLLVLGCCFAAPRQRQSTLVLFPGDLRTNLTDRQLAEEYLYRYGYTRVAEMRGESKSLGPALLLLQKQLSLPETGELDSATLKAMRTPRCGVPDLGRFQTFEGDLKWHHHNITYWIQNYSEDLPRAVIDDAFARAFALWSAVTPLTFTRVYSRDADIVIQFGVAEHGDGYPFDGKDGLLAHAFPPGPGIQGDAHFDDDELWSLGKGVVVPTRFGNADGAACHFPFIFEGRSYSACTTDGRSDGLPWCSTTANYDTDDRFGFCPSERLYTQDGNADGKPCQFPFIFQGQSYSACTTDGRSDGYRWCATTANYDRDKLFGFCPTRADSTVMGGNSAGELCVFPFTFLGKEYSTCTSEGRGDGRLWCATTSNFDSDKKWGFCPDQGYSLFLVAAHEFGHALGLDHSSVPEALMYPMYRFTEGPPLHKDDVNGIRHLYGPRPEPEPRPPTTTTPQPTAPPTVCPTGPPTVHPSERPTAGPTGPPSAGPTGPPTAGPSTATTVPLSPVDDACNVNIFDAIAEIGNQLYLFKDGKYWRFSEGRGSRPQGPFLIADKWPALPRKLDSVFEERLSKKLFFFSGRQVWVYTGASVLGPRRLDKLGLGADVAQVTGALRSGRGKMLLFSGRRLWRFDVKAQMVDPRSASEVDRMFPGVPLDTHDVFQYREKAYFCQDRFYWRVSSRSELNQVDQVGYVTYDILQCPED
Disintegrin and metalloproteinase domain-containing protein 17, sequence (P78536 whole entry, the tested form may be a part): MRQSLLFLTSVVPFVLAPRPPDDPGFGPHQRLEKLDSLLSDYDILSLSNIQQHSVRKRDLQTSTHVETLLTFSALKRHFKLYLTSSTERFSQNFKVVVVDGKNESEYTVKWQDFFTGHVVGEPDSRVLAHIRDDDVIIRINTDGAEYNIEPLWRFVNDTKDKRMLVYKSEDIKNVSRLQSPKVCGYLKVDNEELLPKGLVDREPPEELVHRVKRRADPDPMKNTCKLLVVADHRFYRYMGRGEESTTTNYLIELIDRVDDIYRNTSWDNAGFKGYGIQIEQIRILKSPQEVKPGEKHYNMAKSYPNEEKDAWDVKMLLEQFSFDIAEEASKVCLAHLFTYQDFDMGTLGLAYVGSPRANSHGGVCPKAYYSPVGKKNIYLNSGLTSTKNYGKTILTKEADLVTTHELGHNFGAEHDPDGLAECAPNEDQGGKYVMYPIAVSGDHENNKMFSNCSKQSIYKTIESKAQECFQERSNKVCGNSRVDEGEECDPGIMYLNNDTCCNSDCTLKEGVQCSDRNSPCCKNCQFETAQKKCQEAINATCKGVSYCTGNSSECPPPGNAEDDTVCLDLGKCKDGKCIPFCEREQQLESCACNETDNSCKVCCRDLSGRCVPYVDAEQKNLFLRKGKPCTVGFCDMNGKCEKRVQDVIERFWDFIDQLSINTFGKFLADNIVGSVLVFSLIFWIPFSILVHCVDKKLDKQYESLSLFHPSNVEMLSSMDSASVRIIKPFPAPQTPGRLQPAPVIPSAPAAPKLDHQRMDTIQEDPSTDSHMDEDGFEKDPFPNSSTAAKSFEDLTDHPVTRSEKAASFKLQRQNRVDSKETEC

In the assay with Rattus norvegicus, `COc1ccc(S(=O)(=O)C(C)(Cc2ccc(OCCN3CCCCC3)cc2)C(=O)NO)cc1` (configuration not stated) yielded a Protection of 68%.
For `COc1ccc(S(=O)(=O)C2(C(=O)NO)CCN(Cc3ccc(-c4cccs4)cc3)CC2)cc1`, the IC50 in assay [1] was found to be 0.273 µM; in assay [2], 0.011 µM; on Interstitial collagenase, 0.531 µM; against Collagenase 3, 0.003 µM. The same molecule showed an inhibition in vivo at 25 mg/kg in assay [3] of 12%.
On to `O=C(NO)C1(S(=O)(=O)c2ccc(-c3ccco3)cc2)CCN(Cc2ccccc2)CC1`, for which the IC50 in assay [1] is 0.416 µM; in assay [2], 0.003 µM; at Interstitial collagenase it was 0.04 µM. Further, the inhibition in vivo at 25 mg/kg in assay [4] stood at 95%.
Take `COc1ccc(S(=O)(=O)C2(C(=O)NO)CCN(CCCc3ccccc3)CC2)cc1`: the half-maximal inhibitory concentration (IC50) in assay [2] amounted to 0.013 µM. In assay [5], this molecule displayed an inhibition in vivo at 25 mg/kg of 9%.
